Measured values published in PubChem BioAssay (NCI).
Several values for one entry are separate records, joined by “and”; a condition that tells them apart may be missing. Equal entries are not always repeated.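 Method: 48-hour compound exposure of cells in 96-well plates, five concentrations, linear interpolation of endpoints. At the GI50, growth is halved. TGI denotes the concentration required for complete inhibition of growth.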

What was measured:
Experiment in all cases: NCI anticancer screen, dose series, 48 h
PC-3 prostate = tested on: PC-3 prostate
SW-620 colon = tested on: SW-620 colon
UACC-62 melanoma = tested on: UACC-62 melanoma
K-562 leukemia = tested on: K-562 leukemia
A498 renal = tested on: A498 renal
HOP-62 NSCLC = tested on: HOP-62 NSCLC
SF-268 CNS = tested on: SF-268 CNS
HL-60(TB) leukemia = tested on: HL-60(TB) leukemia
CCRF-CEM leukemia = tested on: CCRF-CEM leukemia
NCI/ADR-RES ovarian = tested on: NCI/ADR-RES ovarian

Row | SMILES | GI50 (PC-3 prostate) [µM] | TGI (PC-3 prostate) [µM] | GI50 (SW-620 colon) [µM] | TGI (SW-620 colon) | GI50 (UACC-62 melanoma) [µM] | TGI (UACC-62 melanoma) | GI50 (K-562 leukemia) [µM] | TGI (K-562 leukemia) | GI50 (A498 renal) [µM] | TGI (A498 renal) | GI50 (HOP-62 NSCLC) [µM] | TGI (HOP-62 NSCLC) | GI50 (SF-268 CNS) [µM] | TGI (SF-268 CNS) | GI50 (HL-60(TB) leukemia) [µM] | TGI (HL-60(TB) leukemia) | GI50 (CCRF-CEM leukemia) [µM] | TGI (CCRF-CEM leukemia) | GI50 (NCI/ADR-RES ovarian) [µM] | TGI (NCI/ADR-RES ovarian) [µM]
1 | Cc1cc(N2CCCCC2)nc(N(CCCNc2ccnc3cc(Cl)ccc23)Cc2ccco2)n1 | 1.98 | 5.61 | 1.61 | 4.37 µM | 1.89 | 3.73 µM | 1.38 | 5.37 µM | 2.66 | 9.39 µM | 1.38 | 4.1 µM | 2.86 | 11.9 µM | 1.94 | 4.51 µM | 2.01 | 12.6 µM | 1.43 | 3.87
2 | O=c1c2cccc(Cl)c2sc2c(NCCCNCCO)nc3ccccc3c12 | 3.45 | 15.5 | 1.41 | 2.95 µM | 1.65 | 3.15 µM | 1.81 | 4.03 µM | 5.64 | 19.3 µM | 2.87 | 17.1 µM | 3.66 | 16.7 µM | 2.4 | 5.49 µM | 2.34 | 8.39 µM | 2.98 | 12.1
3 | CCN(CC)CCCC(C)Nc1cnc(C(=O)Nc2ccc(Cl)c3cccnc23)cn1 (stereo not drawn) | 1.32 | 2.82 | 2.09 | 4.74 µM | 1.85 | 3.43 µM | 1.05 | 3.71 µM | 5.48 | 19.5 µM | 1.77 | 3.61 µM | 3.23 | 15 µM | 1.77 | 3.54 µM | 0.484 | 2.27 µM | 2.55 | 9.33
4 | COc1cc2c3c(n(CCCCOC(=O)C(F)(F)F)c(=O)c2cc1OC)-c1cc2c(cc1C3=O)OCO2 | > 100 | > 100 | > 100 | > 100 µM | > 100 | > 100 µM | > 50.4 | > 100 µM | > 44.4 | > 100 µM | 10.4 | – | > 100 | > 100 µM | > 100 | > 100 µM | 5.01 | > 100 µM | > 100 | > 100
5 | CC(=O)N1N=C2/C(=C/c3ccccc3)CC(C)CC2C1c1ccccc1 (stereo not drawn) | 10.7 | 40.2 | 15.2 | 33.2 µM | 12.6 | 26 µM | 4.29 | 20.7 µM | 16.5 | 30.7 µM | 16.6 | 32.6 µM | 14.8 | 30.6 µM | 8.82 | 32.1 µM | 15.5 | 53.9 µM | 12.5 | 28.8
6 | O=[N+]([O-])c1ccc(Br)c([N+](=O)[O-])c1 | 1.94 | 3.93 | 1.83 | 4.13 µM | 2.56 | 6.87 µM | 1.98 | > 23.5 µM | 14.3 | 27.7 µM | 1.78 | 3.24 µM | 1.93 | 3.94 µM | 1.41 | 3.54 µM | 1.79 | 6.83 µM | 2.39 | 5.69
7 | Oc1ccc2cc(Br)ccc2c1-c1c(O)ccc2cc(Br)ccc12 | 3.24 | 13 | 2.64 | 7.41 µM | 2.2 | 8.5 µM | 2.88 | 11.1 µM | 2.95 | 10.3 µM | 2.62 | 11.1 µM | 3.27 | 13.2 µM | 2.87 | 8.6 µM | 3.31 | 12 µM | 2.97 | 9.22
8 | O=C1NN(c2ccc(C(=O)O)cc2)C(=O)/C1=C\c1ccc([N+](=O)[O-])o1 | > 100 | > 100 | 20 | 47.3 µM | 62 | > 100 µM | 27.3 | 72.1 µM | > 100 | > 100 µM | > 100 | > 100 µM | 61.2 | > 100 µM | 34.5 | 91.7 µM | 22.7 | 61.8 µM | 89.3 | > 100
9 | CC1=C(C(=O)Nc2ccc(F)c(Cl)c2)C(c2ccccc2Cl)NC(=S)N1 (stereo not drawn) | 20.2 | > 50 | > 50 | > 50 µM | 9.63 | > 50 µM | 21.7 | > 50 µM | 12.9 | 48.1 µM | > 50 | > 50 µM | 27.6 | > 50 µM | 25.6 | > 50 µM | > 50 | > 50 µM | 18 | 49.1
10 | COC(=O)NC1C(C)OC(OC2C/C=C(/C)C3C=CC4C(OC5CC(OC6CC(O)C(OC7CC(O)C(OC)C(C)O7)C(C)O6)C(O)C(C)O5)C(C)CC(C)C4C3(C)/C(O)=C3\C(=O)OC4(CC(C)C(CO)=CC4/C=C\2C)C3=O)CC1(C)[N+](=O)[O-] (stereo not drawn) | – | 50 | – | 19.7 µM and 35.2 µM | 9.44 | 16.7 µM and 18.4 µM | 3.64 | 14.7 µM and 71.8 µM | 9.82 | 22.8 µM and 29.8 µM | 9.62 | 18.4 µM and 46.3 µM | – | 50 µM and 55.1 µM | 7.94 | 21.3 µM and 24.2 µM | 9.71 | 36.8 µM and 23.6 µM | > 50 | > 100
11 | C=C1C(=O)O[C@H]2[C@H]1CC/C(COC(=O)CCCCC(=O)OC/C1=C/CC[C@@]3(C)O[C@H]3[C@H]3OC(=O)C(=C)[C@@H]3CC1)=C\CC[C@@]1(C)O[C@@H]21 | 2.43 | 7.46 | 1.17 | 2.78 µM | 1.7 | 4.04 µM | 1.87 | > 100 µM | 11 | > 100 µM | 3.15 | 9.61 µM | 3.02 | > 100 µM | 0.722 | 3.94 µM | 0.429 | 4.25 µM | 5.45 | > 100
12 | CC[C@@H](C(=O)[C@@H](C)[C@@H](O)[C@H](C)[C@@H]1O[C@@H]([C@@H](CC)C(=O)O)CC[C@@H]1C)C1O[C@]2(C=CC(=O)[C@]3(CC[C@@](C)([C@H]4CC[C@](O)(CC)[C@H](C)O4)O3)O2)[C@H](C)C[C@@H]1C (stereo partly drawn) | 0.0665 | 15.5 | 0.827 | 12.8 µM | 1.29 | 2.67 µM | 0.371 | > 27.4 µM | 0.0631 | 0.877 µM | 0.334 | 18.3 µM | 2.12 | 15.7 µM | 0.0399 | 0.332 µM | 0.278 | 9.3 µM | 0.766 | 21.1
13 | COC(=O)Nc1nc2ccc(Oc3ccc(NC(=O)Nc4cccc(C(=O)O)c4)cc3)cc2[nH]1 | 8.44 | > 25 | 7.43 | > 25 µM | 5.35 | > 25 µM | 6.51 | > 25 µM | 4.98 | > 25 µM | 7.09 | > 22 µM | 11.3 | > 25 µM | 6.1 | 17.4 µM | 7.02 | > 25 µM | 6.13 | > 17.4
14 | COc1cc(C(=O)c2ccc3c(c2)OCO3)cc(OC)c1OC | 4.12 | > 100 | 0.621 | > 100 µM | 2.62 | > 100 µM | 0.482 | > 100 µM | 1.75 | 7.93 µM | 3.34 | > 100 µM | 5.56 | > 100 µM | 0.609 | 9.02 µM | 2.46 | > 75.3 µM | 0.987 | > 100
15 | CC1=C[C@H]2c3c(c(O)c(O)c4oc5c(C)cccc5c(=O)c34)[C@H](c3cc(O)c(O)c4oc5c(C)cccc5c(=O)c34)[C@H]2C(C)(C)C1 | 1.51 | 10.2 | 1.93 | 10 µM | 1.6 | 3.27 µM | 1.67 | > 100 µM | 1.85 | 5.35 µM | 1.15 | 3.44 µM | 1.74 | 11.7 µM | 3 | 9.23 µM | 0.65 | 10.4 µM | 2.44 | 7.15
16 | COc1cc2nc3sc(C(=O)Nc4ccc(C(=O)OC(C)C)cc4)c(C(=O)Nc4ccc(Cl)cc4C)n3c(=O)c2cc1OC | 18.5 | > 100 | 1.88 | 25 µM | 6.8 | 91.8 µM | 5.29 | > 100 µM | 4.69 | 26.3 µM | 18.7 | 52.2 µM | 9.45 | 43.3 µM | 7.59 | 35.2 µM | 4.66 | 30.2 µM | 12.4 | > 100
17 | c1ccc(Cn2cc3c(c2-c2ccccc2)CCc2cnoc2-3)cc1 | 6.13 | > 100 | 3.15 | 53.9 µM | 4.48 | > 100 µM | 2.14 | 7.31 µM | 7.33 | > 100 µM | 6.76 | > 100 µM | 8.05 | > 100 µM | 1.75 | 4.09 µM | 3.59 | > 100 µM | 2.75 | 9.53
18 | CCC(C)(C)C(=O)O[C@H]1C[C@@H](C)C=C2C=C[C@H](C)[C@H](CC[C@@H]3C[C@@H](O)CC(=O)O3)[C@H]21 | 0.367 | 14.5 | 3.58 | 16.6 µM and > 30 µM | 0.578 | – | 5.53 | 22.8 µM and > 30 µM | 0.156 | – | 7.37 | 20.3 µM and > 30 µM | 0.715 | 15.4 µM | 6.02 | 20.8 µM and > 30 µM | – | 30.2 µM and > 30 µM | 0.614 | 12.1
19 | CC1=NN(c2ccccc2)C(=O)C1N=Nc1ccc([As](=O)(O)O)c(O)c1 (stereo not drawn) | – | > 100 | – | > 100 µM | – | > 100 µM | – | > 100 µM | – | > 100 µM | – | > 100 µM | – | > 100 µM | – | > 100 µM | – | 92.6 µM | – | > 100
20 | Cn1cc(-c2nc(-c3c[nH]c4ncccc34)cs2)c2cc(F)ccc21 | 2.75 | 13.1 | 2.67 | 9.73 µM | 3.65 | 17.2 µM | 2.19 | > 22.9 µM | 2.03 | 7.48 µM | 4.11 | 16.5 µM | 3.32 | 22.5 µM | 3.21 | 15.6 µM | 3.04 | > 52.6 µM | 2.47 | 7.66
21 | CCOc1cccc(/C=N/NC(=O)c2ccc(Nc3ccnc(C(F)(F)F)c3)cc2)c1O | 0.607 | > 33.8 | 2.01 | > 100 µM | 0.774 | > 61 µM | 0.947 | > 31.6 µM | 4.65 | > 58 µM | 2.23 | > 78.5 µM | 1.07 | > 100 µM | 1.33 | 5.47 µM | 0.332 | 8.36 µM | 3.62 | > 63.2
22 | C[C@@H]1CN(C(=O)c2ccc(NC(=O)c3cc(O[C@H](C)c4c(Cl)ccc(F)c4Cl)c(N)nn3)cc2)C[C@H](C)N1 | 3.65 | 16.7 | 2.29 | 12.6 µM | 1.7 | 5.24 µM | 0.37 | 10.2 µM | 1 | 5.33 µM | 2.5 | 14.4 µM | 4.5 | 17.7 µM | 1.21 | 3.3 µM | 1.78 | 12 µM | 11.7 | 31.1
23 | O=C1CC(c2ccc(N3CCOCC3)cc2)(c2ccsc2)NC(=O)C1Sc1ccccc1Cl (stereo not drawn) | 53.1 | > 100 | 21.6 | > 100 µM | 53.1 | > 100 µM | 4.69 | > 100 µM | 10.4 | > 100 µM | 60.3 | > 100 µM | 20.2 | > 100 µM | > 100 | > 100 µM | 6 | > 100 µM | 46.7 | > 100
